Results: patent US10376456B2, “Concentrated and self-preserving compositions of mild surfactants for transparent and skin-pH personal care formulations” (GALAXY SURFACTANTS LTD., priority 2015, dated 2019)

Columns and labels:
[1] = Critical micelle concentration (CMC); type: physicochemical
From the text: It is well established that in case of surfactants, lower the CMC value, milder the surfactants. Ionic surfactant molecules interact with proteins through charge-charge interaction since the charge density on the head group is high. Whenever aggregates are formed the charge density of micelle is much lesser as the charge gets spread over the large micelle. […] It can be seen from Table 2 that CMC of anionic sodium lauryl sulphate (SLS) is the highest and zwitterionic (electrically neutral) cocoamidopropyl (CAPB) is the lowest.

[2] = test system: subject's volar arm; assay: Corneometry analysis of skin hydration after repeated application of body-wash; type: in vivo; details: body-wash 12% active matter, 2% PEG-150 distearate, twice a day for fifteen days, 50% RH, 20° C.
From the text: Removal of Natural Moisturizing Factor (NMF) from stratum corneum during cleansing leads to a lower capacitance reading since there is less secondary bound water in the skin's corneocytes. […] The corneometer findings are consistent with the TEWL findings.

Molecule	CMC [1] [mM/liter]	Skin moisture level (corneometry) [2]
CCCCCCCCCCCCOS(=O)(=O)[O-].[Na+] [SLS, sodium lauryl sulfate]	5.90	–
Cocoamidopropyl betaine [CAPB]	0.06	–
Sodium cocoyl isethionate	0.14	–
Sodium lauryl ether sulfate [sodium lauryl ether sulphate (2 EO)]	–	dry the stratum corneum
sodium cocoyl glycinate	1.01	–
